Measurements published in US20250042848A1, “DEUTERATED FUNCTIONALIZED DERIVATIVES OF alpha-ALANINE, IN [sequence] FOR THE TREATMENT OF NEUROLOGICAL DISEASES” (UNIWERSYTET JAGIELLONSKI, priority 2021, published 2025).
Like-named read-outs stand apart in the source and are kept apart here.

Legend:
[1] = mouse, in vivo, po, 40 mg/kg
Experimental: The animals were housed at a temperature of 22-24° C., humidity of 50% (+/−10%), in a room providing 15 air changes per hour, with 12:12 hours light-dark cycle. In addition, they had constant access to food and water. […] Blood was allowed to clot at room temperature for 20 min, then centrifuged for 5 min, 10,000×g (Eppendorf miniSpin centrifuge, Germany) to obtain serum. The obtained biological material was stored at −70° C. until analysis.
Concentrations of the tested compounds in murine serum and brain homogenates were determined by high-performance liquid chromatography-tandem mass spectrometry (HPLC-MS/MS). Analyzes were performed on a Sciex QTRAP 4500 triple quad mass spectrometer coupled to an Exion LC AC HPLC (Danaher Corporation, USA). The chromatographic separation was carried out on a Hypersil Gold™ C18 column (3×50 mm, 5 μm, Thermo Scientific, USA), using a mixture of acetonitrile and water with 0.1% formic acid as the mobile phase. Analyzes were performed at 40° C. and the gradient shown in Table 7 was used to obtain optimal retention time. Valsartan was used as an internal standard. Positive ionization mode (ESI+) was used for maximum sensitivity. […]
Non-compartmental analysis was used to estimate the pharmacokinetic parameters. Maximum concentration (Cmax) and time necessary to reach maximum blood concentration-tmax were evaluated directly from the concentration-time plot.

[2] = molecular target: CYP3A4 (Homo sapiens, UniProt P08684); settings: cited from earlier work
[3] = test system: human liver microsomes (HLMs); test: In vitro metabolic stability, human liver microsomes; assay type: in vitro ADME; settings: 120-minute incubation with HLMs
Experimental: Metabolic stability assessment was performed using mouse (MLMs) and human (HLMs) liver microsomes purchased from Sigma-Aldrich (St. Louis, MO, USA). The detailed methodology is described in the literature (Kamiński et al. J. Med. Chem. 2015, 58, 5274-5286). The reaction mixture was prepared by mixing […] of the tested compound with mouse or human microsomes (1 mg/mL) in 10 mM TRIS-HCl buffer. The reaction mixture was pre-incubated for 5 min at 37° C. After the initial incubation, 50 μL of the NADPH Regeneration System (Promega, Madison, WI, USA) was added to initiate the reaction. The reaction mixture was then incubated for 120 min at 37° C. 200 μL of cold extra pure methanol was added to complete the reaction. The mixture was then centrifuged at 14,000 g for 15 min and the supernatants were analyzed using a Waters ACQUITY™ TQD LC/MS system with a TQ detector (Waters, Milford, USA). Each experiment was performed in triplicate.

[4] = test system: motor coordination of mice; test: Rotarod test (motor coordination, acute neurotoxicity); assay type: in vivo; settings: in mg/kg
Experimental: (§1) Initial screening was performed on groups of 4 mice. The mean effective dose (ED50) in a given test and the neurotoxic dose in the rotarod test (TD50) were estimated on the basis of the results obtained on 3-4 groups of animals consisting of 6 animals.
The effect of the tested compounds on motor coordination was assessed in the rotarod test (May Commat, RR 0711 RotaRod, Turkey). The day before the actual experiment, the mice were trained on a rod rotating at 10 revolutions per minute (rpm) for 3 minutes. The experiment was performed 30 minutes and 2 hours after administration of the compounds. The motor coordination of the animals was tested at the speed of the rotating rod: 10 rpm for 60 seconds. The measure of neurotoxicity was the inability to stay on the rod for a given time (Łuszczki, J.J. et al. Eur. Neuropsychopharmacol. 2005, 6, 609-616).
(§2) The ED50 (effective dose) and TD50 (toxic dose) values along with the corresponding 95% confidence limits were calculated based on the Litchfield and Wilcoxon method (Litchfield, J.T.; Wilcoxon, F. J. Pharmacol. Exp. Ther. 1949, 96, 99-113). To perform a statistical evaluation of the results in the scPTZ test, one-way ANOVA variance analysis followed by Dunnett's post hoc test were used. The values were considered statistically significant if p<0.05.

[5] = test system: maximal electroshock seizures in mice; test: Maximal electroshock seizure test (MES); assay type: in vivo
Experimental: as §1
In the maximal electroshock seizure test (MES), the seizures were induced by 500 V, 25 mA electrical stimulus of 0.2 s in duration. The electrical pulse was generated using an electric shock generator (Rodent shocker, Type 221, Hugo Sachs Elektronik, Germany) and delivered to the animal using electrodes placed on the auricles. The study was conducted 30 minutes/2 hours after intraperitoneal administration of the compounds at various doses. During the experiment, the number of animals that experienced a seizure episode in the form of hindlimb tonic extension was counted (Łuszczki, J.J. et al. Fundam. Clin. Pharmacol. 2008, 22, 69-74).
as §2

[6] = test system: psychomotor seizures induced by a 44 mA, 6 Hz stimulus in mice; test: Psychomotor seizure test 6 Hz (44 mA); assay type: in vivo; settings: in mg/kg
Experimental: as §1
(§3) In the psychomotor seizure test (6 Hz test), seizures were induced by a 32 mA and/or 44 mA electrical stimulus of a frequency of 6 pulses per second. An electrical pulse was generated using an electric shock generator (ECT Unit 57800; Ugo Basile, Gemonio, Italy) and delivered to the animal using corneal electrodes. Before starting the test, the eye surface was gently moistened with a solution of local anesthetic (1% lidocaine solution). The study was conducted 30 minutes/2 hours after intraperitoneal administration of the compounds at various doses. An electrical stimulus was delivered continuously for a period of 3 seconds, followed by observation of the animal for a period of 10 seconds. During the experiment, the number of animals with an episode of psychomotor convulsions was counted: motor inhibition, staggering, maintaining a sitting posture, forelimb clonus, twitching of the vibrissae and Straub-tail were observed (Leclercq, K.; Kaminski, R.M. Epilepsia 2015, 56, 310-318).
as §2

[7] = test system: motor coordination of mice; settings: in vivo; cited from earlier work
[8] = test system: psychomotor seizures induced by a 32 mA, 6 Hz stimulus in mice; test: Psychomotor seizure test 6 Hz (32 mA); assay type: in vivo
Experimental: as §1, §3, §2

[9] = test system: human liver microsomes (HLMs); settings: cited from earlier work
[10] = test system: spontaneous locomotor activity of mice; settings: mouse, in vivo; cited from earlier work
[11] = test system: CYP2D9; settings: cited from earlier work
[12] = test system: psychomotor seizures induced by a 32 mA, 6 Hz stimulus in mice; settings: 0.5 h, i.p.; own data disclosed in Abram et al. Bioorg. Chem. 2021; in mg/kg; cited from earlier work
[13] = test system: pentylenetetrazole-induced clonic seizures in mice; settings: 0.5 h, i.p.; own data disclosed in Abram et al. Bioorg. Chem. 2021; in mg/kg; cited from earlier work
[14] = 0.5 h after i.p. administration
[15] = 2.0 h after i.p. administration

Sequence of CYP3A4 (P08684 whole entry): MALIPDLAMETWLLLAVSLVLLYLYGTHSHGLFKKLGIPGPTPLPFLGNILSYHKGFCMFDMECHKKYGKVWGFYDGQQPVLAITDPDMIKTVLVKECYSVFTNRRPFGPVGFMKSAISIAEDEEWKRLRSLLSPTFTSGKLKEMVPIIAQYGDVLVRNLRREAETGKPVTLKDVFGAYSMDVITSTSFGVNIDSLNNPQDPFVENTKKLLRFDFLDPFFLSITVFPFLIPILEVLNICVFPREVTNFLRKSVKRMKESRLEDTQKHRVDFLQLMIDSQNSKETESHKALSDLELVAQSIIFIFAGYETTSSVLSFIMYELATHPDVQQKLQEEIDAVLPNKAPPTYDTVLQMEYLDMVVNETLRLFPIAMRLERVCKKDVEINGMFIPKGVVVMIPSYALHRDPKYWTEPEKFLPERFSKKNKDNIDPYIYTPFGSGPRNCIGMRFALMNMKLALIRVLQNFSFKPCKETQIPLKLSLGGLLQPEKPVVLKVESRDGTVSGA

Row | SMILES | tmax [1] [min] | interaction with CYP3A4 isoform of cytochrome P-450 [2] | metabolic stability [3] | TD50 Rotarod [4, 14] | TD50 Rotarod [4, 15] | ED50 MES [5, 14] [mg/kg] | ED50 MES [5, 15] [mg/kg] | ED50 6 Hz (44 mA) [6, 14] | ED50 6 Hz (44 mA) [6, 15] | effect on mouse motor coordination in the rotarod test [7] | ED50 6 Hz (32 mA) [8, 14] [mg/kg] | ED50 6 Hz (32 mA) [8, 15] [mg/kg] | metabolic stability on human microsomes [9] | sedative effect in spontaneous locomotor activity test on mice [10] | interaction with CYP2D9 isoform of cytochrome P-450 [11] | ED50 6 Hz (32 mA) [12] | ED50 scPTZ [13]
1 | CC(C(=O)NCc1ccccc1F)N1C(=O)CCC1=O (centres unmarked) [Compound 2, reference compound] | 30 | no interaction | high metabolic stability | >100 | >300 | 23.6 | 73.3 | 78.3 | 86.8 | minimal effect | 16.7 | 38.1 | very high metabolic stability | no sedative effect | no interaction |  | 
2 | CCCC(CCC)C(=O)O [VPA, valproic acid] |  |  |  |  |  |  |  |  |  |  |  |  |  |  |  | 130.6 | 239.4
